# Measured values reported in patent publication US20070270488A1, “Treatment and Assays” (The Queen's University of Belfast, priority 2004, published 2007).
# Assays:
# [1] = system: HCT116 p53^+/+ parental cells; test: MTT cytotoxicity assay, HCT116 p53^+/+ parental cells; format: cell-based, human; details: HCT116 p53^+/+ parental, 72 h, read-out: IC50(72 h)
# Protocol: (§1) Tissue culture. HCT116 p53^+/+ and p53^−/− isogenic human colon cancer cells were kindly provided by Professor Bert Vogelstein (John Hopkins University, Baltimore, Md.). Drug-resistant HCT116 sub-lines were developed in the inventors' laboratory by repeated exposure to stepwise increasing concentrations of 5-FU, CPT-11 or oxaliplatin over a period of approximately ten months. Parental and drug-resistant HCT116 cell lines were grown in McCoy's 5A medium supplemented with 10% dialysed foetal calf serum (FCS), 50 μg/ml penicillin-streptomycin, 2 mM L-glutamine and 1 mM sodium pyruvate (all from GIBCO Invitrogen Corporation, Paisley, Scotland) and maintained at 37° C. in a humidified atmosphere containing 5% CO2. 5-FU-resistant p53^+/+ and p53^−/− HCT116 cells were maintained in the presence of 2 μM and 4 μM 5-FU respectively. CPT-11-resistant p53^+/+ and p53^−/− HCT116 cells were maintained in the presence of 1 μM and 3 μM CPT-11 respectively. […] Prior to each experiment, resistant sub-lines were cultured in the absence of drug for 48 hours.
# (§2) Cytotoxicity studies. Cells were seeded at 2000 cells per well in 96-well microtiter plates. After 48 hours, cells were treated with a range of concentrations of 5-FU, CPT-11 or oxaliplatin.
# (§3) After 72 hours, 25 μl of MTT dye (5 mg/ml) was added to each well and the plates were incubated at 37° C. for 3 hours. Dark-blue formazan crystals formed by live cells were dissolved in 200 μl of DMSO and absorbance in individual wells was determined at 570 nm using an Emax precision microplate reader (Molecular Devices, Sunnyvale, Calif.).
# [2] = system: p53^+/+ 5-FU-resistant HCT116 cells; test: MTT cytotoxicity assay, p53^+/+ 5-FU-resistant HCT116 cells; format: cell-based, human
# Protocol: (§4) Tissue culture. HCT116 p53^+/+ and p53^−/− isogenic human colon cancer cells were kindly provided by Professor Bert Vogelstein (John Hopkins University, Baltimore, Md.). […] Parental and drug-resistant HCT116 cell lines were grown in McCoy's 5A medium supplemented with 10% dialysed foetal calf serum (FCS), 50 μg/ml penicillin-streptomycin, 2 mM L-glutamine and 1 mM sodium pyruvate (all from GIBCO Invitrogen Corporation, Paisley, Scotland) and maintained at 37° C. in a humidified atmosphere containing 5% CO2. 5-FU-resistant p53^+/+ and p53^−/− HCT116 cells were maintained in the presence of 2 μM and 4 μM 5-FU respectively. […] Prior to each experiment, resistant sub-lines were cultured in the absence of drug for 48 hours.
# [3] = system: p53^+/+ oxaliplatin-resistant HCT116 cells; test: MTT cytotoxicity assay, p53^+/+ oxaliplatin-resistant HCT116 cells; format: cell-based, human; details: p53^+/+ oxaliplatin-resistant, MTT, 72 h; read-out: IC50(72 h)
# Protocol: as §1, §2, §3
# [4] = system: p53^+/+ CPT-11-resistant HCT116 cells; test: MTT cytotoxicity assay, p53^+/+ CPT-11-resistant HCT116 cells; format: cell-based, human; details: p53^+/+ CPT-11-resistant, MTT, 72 h; read-out: IC50(72 h)
# Protocol: as §4
# [5] = system: HCT116 p53^−/− parental cells; test: MTT cytotoxicity assay, HCT116 p53^−/− parental cells; format: cell-based, human
# Protocol: as §1, §2, §3
# [6] = system: p53^−/− 5-FU-resistant HCT116 cells; test: MTT cytotoxicity assay, p53^−/− 5-FU-resistant HCT116 cells; format: cell-based, human
# Protocol: as §4
# [7] = system: p53^−/− oxaliplatin-resistant HCT116 cells; test: MTT cytotoxicity assay, p53^−/− oxaliplatin-resistant HCT116 cells; format: cell-based, human; details: p53^−/− oxaliplatin-resistant, MTT, 72 h; read-out: IC50(72 h)
# Protocol: as §1, §2, §3
# [8] = system: p53^−/− CPT-11-resistant HCT116 cells; test: MTT cytotoxicity assay, p53^−/− CPT-11-resistant HCT116 cells; format: cell-based, human
# Protocol: as §4
# [9] = system: p53^+/+ HCT116 parental cells; test: Flow cytometry cell cycle/apoptosis, p53^+/+ HCT116 parental cells; format: cell-based, human; details: 72 hours
# Protocol: (§5) Parental and drug-resistant HCT116 cell lines were grown in McCoy's 5A medium supplemented with 10% dialysed foetal calf serum (FCS), 50 μg/ml penicillin-streptomycin, 2 mM L-glutamine and 1 mM sodium pyruvate (all from GIBCO Invitrogen Corporation, Paisley, Scotland) and maintained at 37° C. in a humidified atmosphere containing 5% CO2. 5-FU-resistant p53^+/+ and p53^−/− HCT116 cells were maintained in the presence of 2 μM and 4 μM 5-FU respectively. […] Prior to each experiment, resistant sub-lines were cultured in the absence of drug for 48 hours.
# (§6) Flow cytometry. Cells were seeded at 5×10^4 cells per well in 6-well plates. […] Seventy-two hours post-treatment, cells were harvested in 5 ml of 1× PBS/0.5 mM EDTA and pelleted by centrifugation at 1000 rpm/4° C. for 5 minutes. Cell pellets were washed once with 1× PBS/1% FCS, fixed in 70% ethanol and stained with propidium iodide. Analyses were performed on a Beckman Coulter Epics XL flow cytometer (Miami, Fla.).
# [10] = system: p53^+/+ 5-FU-resistant HCT116 cells; test: Flow cytometry cell cycle/apoptosis, p53^+/+ 5-FU-resistant cells; format: cell-based, human; details: 72 hours
# Protocol: as §5, §6
# [11] = system: p53^−/− HCT116 parental cells; test: Flow cytometry cell cycle/apoptosis, p53^−/− HCT116 parental cells; format: cell-based, human; details: 72 hours
# Protocol: as §5, §6
# [12] = system: p53^−/− 5-FU-resistant HCT116 cells; test: Flow cytometry cell cycle/apoptosis, p53^−/− 5-FU-resistant cells; format: cell-based, human; details: 1 μM, 5 μM and 10 μM, relative to untreated control cells
# Protocol: as §1
# Flow cytometry. Cells were seeded at 5×10^4 cells per well in 6-well plates. After 48 hours, cells were treated with a range of concentrations of 5-FU, CPT-11 or oxaliplatin. Seventy-two hours post-treatment, cells were harvested in 5 ml of 1× PBS/0.5 mM EDTA and pelleted by centrifugation at 1000 rpm/4° C. for 5 minutes. […]
# [13] = system: p53^−/− CPT-11-resistant HCT116 cells; test: Flow cytometry cell cycle/apoptosis, p53^−/− CPT-11-resistant cells; format: cell-based, human; details: p53^−/− CPT-11-resistant cell line, data not shown
# p53^+/+ HCT116 cells = test: PARP cleavage immunoblotting, p53^+/+ HCT116 cells; format: cell-based, human; details: 5 μM, 48 hours, Western blot
# Protocol: (§7) Immunoblotting. Cells, were seeded at 1×10^6 cells per plate in 90 mm tissue culture dishes. […] After 48 hours, cells were harvested and resuspended in 200 μl of 1× RIPA buffer (20 mM TRIS pH7.4, 150 mM NaCl, 1 mM EDTA pH8.0, 1% Triton X-100, 0.1% SDS). Cells were lysed and centrifuged at 13,200 rpm/4° C. for 15 minutes to remove cell debris.
# (§8) Protein concentrations were determined using the BCA protein assay reagent (Pierce, Rockford, Ill.). Twenty micrograms of each protein sample were resolved by SDS-PAGE and transferred to a PVDF membrane by electroblotting. Immunodetection was performed using anti-PARP or anti-β-tubulin mouse monoclonal antibodies and a 1/2000 dilution of a horseradish peroxidase-conjugated sheep anti-mouse secondary antibody (Amersham, Buckinghamshire, England). The fluorescent signal was detected using the Super Signal chemiluminescent detection system (Pierce) according to the manufacturer's instructions.
# p53^−/− HCT116 cells = test: PARP cleavage immunoblotting, p53^−/− HCT116 cells; format: cell-based, human; details: 5 μM, 48 hours, Western blot
# Protocol: as §7, §8
# resected stage III CRC = details: adjuvant 5-FU-based chemotherapy, patients with resected stage III CRC; cited from earlier work
# advanced CRC = details: monotherapy; cited from earlier work
structure (smiles),measurement,setting,value
O=c1[nH]cc(F)c(=O)[nH]1 [5-FU],IC50,[1],4.3 µM
same,increase in IC50 (72 hr) compared to parental cells,[2]; p53^+/+ 5-FU-resistant vs p53^+/+ parental,3.0 fold
same,IC50,"[2]; p53^+/+ 5-FU-resistant, MTT, 72 h, read-out: IC50(72 h)",12.7 µM
same,IC50,[3],3.6 µM
same,IC50,[4],4.2 µM
same,IC50,"[5]; HCT116 p53^−/− parental, MTT, 72 h, read-out: IC50(72 h)",19.7 µM
same,increase in IC50 (72 h) dose in p53^−/− compared to p53^+/+ cells,[5]; parental HCT116 p53^−/− vs p53^+/+,4.6 fold
same,increase in IC50 (72 hr) compared to parental cells,[6]; p53^−/− 5-FU-resistant vs p53^−/− parental,9.0 fold
same,IC50,"[6]; p53^−/− 5-FU-resistant, MTT, 72 h, read-out: IC50(72 h)",178 µM
same,IC50,[7],22 µM
same,increase in IC50 (72 hr) compared to parental cells,[8]; p53^−/− CPT-11-resistant vs p53^−/− parental,~2 fold
same,IC50,"[8]; p53^−/− CPT-11-resistant, MTT, 72 h, read-out: IC50(72 h)",47 µM
same,cell cycle distribution,[9]; 1 μM,S-phase arrest and evidence of polyploidy
same,cell cycle distribution,[9]; 5 μM and 10 μM,arrested in G2/M-phase
same,sub-G0/G1 content,"[9]; 5 μM and 10 μM, ~4% in control samples",30-35%
same,cell cycle distribution,[10]; 1 μM,no change in cell cycle profile
same,cell cycle distribution,[10]; 5 μM and 10 μM,majority of cells had arrested at the G1/S boundary
same,induction of apoptosis compared to parental cells,[10]; 5 μM and 10 μM,significantly reduced
same,cell cycle distribution,[11]; 1 μM,arrested in S-phase
same,cell cycle distribution,[11]; 5 μM and 10 μM,majority of p53^−/− parental cells had DNA content >4N
same,drug-induced apoptosis in p53^−/− compared to p53^+/+ parental cells,[11]; range of concentrations,significantly less apoptosis
same,cell cycle distribution,[12],no change in cell cycle profile
same,cross-resistance examined using cell cycle analyses,[13],no evidence of cross-resistance
same,PARP cleavage,p53^+/+ HCT116 cells,observed
same,PARP cleavage,p53^−/− HCT116 cells,not
same,improvement of disease-free survival,resected stage III CRC,35%
same,improvement of overall survival,resected stage III CRC,22%
same,response rates,advanced CRC,10 to 15%
